Common to all, as to experiment: IA-DTB cysteine engagement
What all share (type): binding

For one experiment, the target named is T1, YES1_C287 (Homo sapiens, UniProt P07947).
T1 construct: endogenous in cells; host or cells: 22Rv1
The settings on record: 22Rv1 cells, relative to DMSO; for % engagement YES1_287: 5 μM probe, 1 h (FIG. 5B); for % engagement YES1_C287: 20 μM probe, 1 h. The procedure, abridged: (§1)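 Probe-exposed cells were lysed, IA-DTB-labeled, trypsinized and streptavidin-enriched. Multiplexed TMT quantitation gave engagement ratios versus DMSO, with non-tryptic peptides excluded and intensities normalized to median summed signal.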

The target of a further experiment is T2, LIMK1_C349 (Homo sapiens, UniProt P53667).
T2 construct: endogenous in cells; host or cells: 22Rv1
T2 sequence (P53667 whole entry): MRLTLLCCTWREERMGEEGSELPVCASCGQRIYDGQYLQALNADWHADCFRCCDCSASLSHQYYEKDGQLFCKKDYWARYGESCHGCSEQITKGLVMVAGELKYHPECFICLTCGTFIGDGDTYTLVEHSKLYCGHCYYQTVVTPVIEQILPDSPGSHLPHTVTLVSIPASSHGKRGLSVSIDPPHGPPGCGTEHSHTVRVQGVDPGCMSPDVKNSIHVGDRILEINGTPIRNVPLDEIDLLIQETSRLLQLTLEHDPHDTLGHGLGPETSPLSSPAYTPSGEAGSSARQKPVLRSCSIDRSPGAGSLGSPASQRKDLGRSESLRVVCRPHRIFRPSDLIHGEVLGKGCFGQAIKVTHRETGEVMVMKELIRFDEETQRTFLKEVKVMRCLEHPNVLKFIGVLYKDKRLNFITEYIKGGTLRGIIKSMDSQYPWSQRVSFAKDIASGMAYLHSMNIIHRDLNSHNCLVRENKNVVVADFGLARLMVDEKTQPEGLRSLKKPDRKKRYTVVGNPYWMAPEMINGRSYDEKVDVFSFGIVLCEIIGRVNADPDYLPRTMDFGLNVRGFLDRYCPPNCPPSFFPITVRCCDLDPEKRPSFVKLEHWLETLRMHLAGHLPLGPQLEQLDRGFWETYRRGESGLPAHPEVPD
The settings on record: 22Rv1 cells, relative to DMSO; for % engagement LIMK1_349: 5 μM probe, 1 h (FIG. 5B); for % engagement LIMK1_C349: 20 μM probe, 1 h. In a few lines:
as §1

A further experiment addresses T3, PDE3B_C311 (Homo sapiens, UniProt Q13370).
T3 construct: endogenous in cells; host or cells: 22Rv1
To be noted: 22Rv1 cells, 20 μM probe, 1 h, relative to DMSO. In a few lines:
as §1

In another experiment the target is T4, PRRT3_C720 (Homo sapiens, UniProt Q5FWE3).
T4 construct: endogenous in cells; host or cells: 22Rv1
T4 sequence (Q5FWE3 28-981): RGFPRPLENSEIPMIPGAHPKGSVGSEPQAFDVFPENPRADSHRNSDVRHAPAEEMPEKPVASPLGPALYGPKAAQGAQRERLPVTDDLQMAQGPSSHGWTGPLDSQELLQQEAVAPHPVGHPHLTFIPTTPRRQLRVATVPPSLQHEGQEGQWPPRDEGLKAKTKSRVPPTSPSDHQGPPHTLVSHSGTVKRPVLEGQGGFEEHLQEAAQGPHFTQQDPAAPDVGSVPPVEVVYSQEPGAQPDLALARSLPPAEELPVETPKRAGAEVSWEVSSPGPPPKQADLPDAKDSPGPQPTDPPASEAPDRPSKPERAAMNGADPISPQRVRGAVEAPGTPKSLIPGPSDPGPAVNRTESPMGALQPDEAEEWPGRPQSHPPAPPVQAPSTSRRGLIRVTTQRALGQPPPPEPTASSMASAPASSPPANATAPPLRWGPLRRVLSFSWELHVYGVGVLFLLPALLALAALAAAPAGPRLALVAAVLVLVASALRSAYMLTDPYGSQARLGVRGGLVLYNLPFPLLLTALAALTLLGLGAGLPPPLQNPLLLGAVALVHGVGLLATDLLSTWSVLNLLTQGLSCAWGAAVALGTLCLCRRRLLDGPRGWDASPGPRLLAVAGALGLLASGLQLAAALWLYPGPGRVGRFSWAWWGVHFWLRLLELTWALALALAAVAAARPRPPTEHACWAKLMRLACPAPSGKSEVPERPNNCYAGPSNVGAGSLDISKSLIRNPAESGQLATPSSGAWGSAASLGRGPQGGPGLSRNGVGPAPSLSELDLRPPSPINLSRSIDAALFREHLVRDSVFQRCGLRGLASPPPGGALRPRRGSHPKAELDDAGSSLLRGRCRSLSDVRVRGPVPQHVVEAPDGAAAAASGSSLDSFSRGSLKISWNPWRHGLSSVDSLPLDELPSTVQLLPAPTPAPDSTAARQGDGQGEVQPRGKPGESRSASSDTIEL
The settings on record: 22Rv1 cells, 20 μM probe, 1 h, relative to DMSO. In a few lines:
as §1

The target of the next experiment is T5, WAPL_C1133 (Homo sapiens, UniProt Q7Z5K2).
T5 construct: endogenous in cells; host or cells: 22Rv1
T5 sequence (Q7Z5K2 1-1190): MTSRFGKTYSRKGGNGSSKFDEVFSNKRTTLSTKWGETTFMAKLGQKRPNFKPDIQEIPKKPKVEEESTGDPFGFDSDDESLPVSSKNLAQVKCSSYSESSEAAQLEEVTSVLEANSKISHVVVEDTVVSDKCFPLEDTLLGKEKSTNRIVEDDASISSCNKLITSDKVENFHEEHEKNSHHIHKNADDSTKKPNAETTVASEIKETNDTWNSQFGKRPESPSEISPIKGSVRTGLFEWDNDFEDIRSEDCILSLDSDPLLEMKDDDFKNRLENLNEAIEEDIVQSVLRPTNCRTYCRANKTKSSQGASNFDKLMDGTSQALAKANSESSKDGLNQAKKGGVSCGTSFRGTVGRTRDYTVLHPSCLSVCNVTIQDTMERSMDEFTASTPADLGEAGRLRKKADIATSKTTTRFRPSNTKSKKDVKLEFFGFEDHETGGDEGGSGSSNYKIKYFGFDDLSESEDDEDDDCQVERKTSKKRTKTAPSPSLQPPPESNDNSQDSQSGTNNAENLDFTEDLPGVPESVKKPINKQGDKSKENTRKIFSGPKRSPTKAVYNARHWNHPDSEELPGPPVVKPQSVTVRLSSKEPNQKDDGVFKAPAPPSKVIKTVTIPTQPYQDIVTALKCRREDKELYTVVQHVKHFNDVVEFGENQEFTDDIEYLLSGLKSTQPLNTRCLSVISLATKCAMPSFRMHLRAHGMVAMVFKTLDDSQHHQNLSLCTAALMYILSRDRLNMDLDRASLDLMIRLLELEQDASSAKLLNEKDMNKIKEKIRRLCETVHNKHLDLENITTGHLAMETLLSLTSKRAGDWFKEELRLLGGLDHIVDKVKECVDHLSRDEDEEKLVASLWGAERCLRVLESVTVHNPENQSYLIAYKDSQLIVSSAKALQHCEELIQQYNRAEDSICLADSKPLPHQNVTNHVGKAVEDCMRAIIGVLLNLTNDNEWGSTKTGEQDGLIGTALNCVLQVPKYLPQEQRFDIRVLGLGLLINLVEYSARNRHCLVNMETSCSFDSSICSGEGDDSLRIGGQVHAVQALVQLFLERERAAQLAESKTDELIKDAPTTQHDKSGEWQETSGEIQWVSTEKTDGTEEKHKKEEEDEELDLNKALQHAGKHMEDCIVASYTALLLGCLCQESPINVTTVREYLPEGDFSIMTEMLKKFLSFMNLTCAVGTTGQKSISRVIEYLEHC
The settings on record: 22Rv1 cells, 20 μM probe, 1 h, relative to DMSO. The procedure, abridged:
as §1

T3 sequence (Q13370 whole entry): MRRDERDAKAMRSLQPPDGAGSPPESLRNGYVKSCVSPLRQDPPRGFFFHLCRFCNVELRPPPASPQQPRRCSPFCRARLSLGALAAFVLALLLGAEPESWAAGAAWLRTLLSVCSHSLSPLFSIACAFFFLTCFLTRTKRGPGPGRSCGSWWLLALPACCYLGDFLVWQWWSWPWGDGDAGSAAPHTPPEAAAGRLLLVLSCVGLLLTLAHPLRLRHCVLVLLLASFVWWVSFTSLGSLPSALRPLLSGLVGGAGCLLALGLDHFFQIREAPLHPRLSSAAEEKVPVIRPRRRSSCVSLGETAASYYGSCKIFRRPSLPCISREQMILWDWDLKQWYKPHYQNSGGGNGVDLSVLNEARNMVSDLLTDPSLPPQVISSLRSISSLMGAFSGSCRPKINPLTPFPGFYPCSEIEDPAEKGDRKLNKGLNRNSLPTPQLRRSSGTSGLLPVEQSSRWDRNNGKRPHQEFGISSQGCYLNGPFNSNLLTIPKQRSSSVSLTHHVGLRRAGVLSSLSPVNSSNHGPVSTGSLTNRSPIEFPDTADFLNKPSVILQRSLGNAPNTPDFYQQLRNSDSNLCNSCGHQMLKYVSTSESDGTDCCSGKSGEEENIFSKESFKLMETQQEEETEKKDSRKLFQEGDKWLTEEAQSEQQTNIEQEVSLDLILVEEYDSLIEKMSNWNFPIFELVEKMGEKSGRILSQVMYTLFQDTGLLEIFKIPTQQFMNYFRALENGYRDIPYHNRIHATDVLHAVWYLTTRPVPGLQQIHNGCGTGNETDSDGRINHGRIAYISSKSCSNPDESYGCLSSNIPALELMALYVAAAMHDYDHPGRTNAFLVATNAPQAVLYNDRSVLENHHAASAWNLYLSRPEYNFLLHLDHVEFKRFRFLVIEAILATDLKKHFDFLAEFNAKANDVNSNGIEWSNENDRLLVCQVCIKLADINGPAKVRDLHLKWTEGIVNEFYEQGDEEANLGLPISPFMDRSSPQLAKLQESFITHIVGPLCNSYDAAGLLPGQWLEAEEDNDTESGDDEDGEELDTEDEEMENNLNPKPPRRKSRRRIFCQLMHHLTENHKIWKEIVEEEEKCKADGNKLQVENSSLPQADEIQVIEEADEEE
T1 sequence (P07947 whole entry): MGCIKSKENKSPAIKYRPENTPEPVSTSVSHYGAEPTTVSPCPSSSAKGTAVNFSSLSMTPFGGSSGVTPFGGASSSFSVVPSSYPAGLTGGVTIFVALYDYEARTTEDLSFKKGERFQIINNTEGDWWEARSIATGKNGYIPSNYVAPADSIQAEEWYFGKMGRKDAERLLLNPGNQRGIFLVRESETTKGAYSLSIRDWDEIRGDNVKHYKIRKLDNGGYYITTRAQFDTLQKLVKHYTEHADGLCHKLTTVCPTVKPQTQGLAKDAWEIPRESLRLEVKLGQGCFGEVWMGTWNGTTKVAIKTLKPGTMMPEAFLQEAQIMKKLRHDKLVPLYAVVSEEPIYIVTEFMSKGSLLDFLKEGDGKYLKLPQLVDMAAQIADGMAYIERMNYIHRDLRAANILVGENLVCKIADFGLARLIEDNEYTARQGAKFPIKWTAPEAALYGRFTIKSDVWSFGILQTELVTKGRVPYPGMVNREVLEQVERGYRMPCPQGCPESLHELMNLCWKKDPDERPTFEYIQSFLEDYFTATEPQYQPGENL

Regarding `CC#CC(=O)N1C[C@H](c2ccc(Br)cc2)[C@@H]1C(=O)Nc1cccc2cccnc12` [MY-45B, (2R,3S)-3-(4-bromophenyl)-1-(but-2-ynoyl)-N-(quinolin-8-yl)azetidine-2-carboxamide], the “% engagement YES1_287” value at YES1_C287 worked out at 5.50%. At LIMK1_C349, the “% engagement LIMK1_349” value is −15.75%.

On to `C=CC(=O)N1C[C@H](c2ccc(Br)cc2)[C@@H]1C(=O)Nc1cccc2cccnc12` [MY-1B, (2R,3S)-1-acryloyl-3-(4-bromophenyl)-N-(quinolin-8-yl)azetidine-2-carboxamide], for which, on YES1_C287, the “% engagement YES1_287” value turned out to be 67.13% and the “% engagement YES1_C287” value is listed as 94.5%. Also, the “% engagement PDE3B_C311” value at PDE3B_C311 was determined as 58%. Also, the “% engagement PRRT3_C720” value at PRRT3_C720 is 53%. In addition, at LIMK1_C349, the “% engagement LIMK1_349” value turned out to be 90.88% and the “% engagement LIMK1_C349” value was determined as 93%. Further, the “% engagement WAPL_C1133” value on WAPL_C1133 amounted to 34%.

`C=CC(=O)N1C[C@H](c2ccc(Br)cc2)[C@H]1C(=O)Nc1cccc2cccnc12` [MY-3B, (2S,3S)-1-acryloyl-3-(4-bromophenyl)-N-(quinolin-8-yl)azetidine-2-carboxamide]: the “% engagement YES1_C287” value on YES1_C287 stood at 42.25%. In addition, the “% engagement PDE3B_C311” value at PDE3B_C311 is given as 75.5%. Further, the “% engagement PRRT3_C720” value at PRRT3_C720 is 71%. In addition, the “% engagement LIMK1_C349” value on LIMK1_C349 came out at 43.25%. Besides, the “% engagement WAPL_C1133” value on WAPL_C1133 stood at 46%.

`C=CC(=O)N1C[C@H](c2ccc(Br)cc2)[C@H]1C(=O)Nc1cccc2cccnc12` [MY-3A, (2S,3S)-1-acryloyl-3-(4-bromophenyl)-N-(quinolin-8-yl)azetidine-2-carboxamide]: the “% engagement YES1_C287” value at YES1_C287 came out at 0.5%. Further, the “% engagement PDE3B_C311” value at PDE3B_C311 was determined as 49%. Moreover, at PRRT3_C720, the “% engagement PRRT3_C720” value stood at 45.5%. Also, the “% engagement LIMK1_C349” value on LIMK1_C349 amounted to 21.5%. The “% engagement WAPL_C1133” value at WAPL_C1133 stood at 78.5%.

On to `C=CC(=O)N1C[C@@H](c2ccc(Br)cc2)[C@H]1C(=O)Nc1cccc2cccnc12` [MY-1A, (2S,3R)-1-acryloyl-3-(4-bromophenyl)-N-(quinolin-8-yl)azetidine-2-carboxamide], for which the “% engagement YES1_C287” value at YES1_C287 amounted to 5.75%. The “% engagement PDE3B_C311” value at PDE3B_C311 was determined as 57.5%. Moreover, the “% engagement PRRT3_C720” value on PRRT3_C720 turned out to be 47%. For the same molecule, the “% engagement LIMK1_C349” value on LIMK1_C349 is 45.25%. Moreover, the “% engagement WAPL_C1133” value at WAPL_C1133 came to 18%.

For the origin of these results see US20250034216A1, “STEREOSELECTIVE COVALENT LIGANDS FOR ONCOGENIC AND IMMUNOLOGICAL PROTEINS” (The Scripps Research Institute, priority 2021, published 2025).
